Reference: US10105362B2, “Anti-tumor use of anagrelide and derivatives thereof” (SHANGHAI INSTITUTE OF MATERIA MEDICA, CHINESE ACADEMY OF …, priority 2013, dated 2018)
“Also recorded” adds a separate entry of the source.

Assays:
Type in all cases: cell-based, human
[1] = tested on: A498 cells; experiment: Cell cycle arrest (summary of experiments)
Protocol: (§1) Logarithmic growth phase cells were seeded in 6-well culture plate in 5×10^5/mL concentration, 1.5 mL of culture medium in each well, and cultured overnight. Different concentrations of drugs were added to stimulate for a certain time, and then the cells were collected into 1.5 mL EP tube. The cells were washed with cold PBS for 1-2 times, little PBS (about 200 ul) was added and blown to uniform. 1 mL 75% ethanol was pre-cooled (prepared with PBS), and cells was added dropwise into alcohol solution which was oscillated on shaker, fixed under 4° C. overnight. After 1000rpm centrifuged for 5 min, the supernatant was discarded and 1-2 mL PBS was added to wash twice. The cells were suspended with 0.5 mL RnaseA (1.0 mg/ml), and digested under 37° C. for 1 h. The cells were resuspended with 0.5 mL 25 ug/mL PI dye liquor, and were kept in dark place under 4° C. for 30 min. The cells were filtered with 300 mesh sieve, and the cell cycle distribution was analyzed with flow cytometry.

[2] = tested on: Bel7404 cells; experiment: Cell cycle arrest (summary of experiments)
Protocol: as §1

[3] = tested on: H4 cells; experiment: Cell cycle arrest (summary of experiments)
Protocol: as §1

[4] = tested on: FHCC98 cells; experiment: Cell cycle arrest (summary of experiments)
Protocol: as §1

[5] = tested on: PARP cleavage in H4 cells; experiment: PARP cleavage by Western Blotting (apoptosis); conditions: 100 nM, different time points
From the text: (§2) 1) Vertical electrophoretic separation of proteins: 8%-10% SDS-polyacrylamide (SDA-PAGE) gel electrophoresis separation, 5% stacking gel. The voltage for stacking gel was 80V, separation gel separation voltage for separating gel was 120V, and electrophoresis was stopped when bromophenol blue indicator ran to the bottom; 2) membrane transferring: semi-dry transferring: transmembrane voltage was 10-15V, and the time was adjusted according to the size of the protein; 3) pre-stained with Ponceau to observe transmembrane effect; 4) blocking: It was blocked with 5% skim milk in TBST and oscillated on Decolorization shaker at room temperature for 1 hour; 5) the binding with first antibody: The antibody was diluted at 1: 2000 to 1: 10000 in TBST containing 5% BSA, oscillated on decolorization shaker 1 hour under room temperature for binding, and placed at 4° C. overnight. TBST was used to wash for three times, and 10 minutes for each time. 6) the binding with secondary antibody: The antibody was diluted at 1:5000 to 1:10000 in TBST containing 5% BSA, and oscillated on decolorization shaker 1 hour for binding under room temperature. TBST was used to wash for three times, and 10 minutes for each time. ECL developing kit was used to treat substrate for 2-3 minutes, detected for chemiluminescence, and exposed on X-ray film. […] The PARP cleavage was detected by Western Blotting.

[6] = tested on: PARP cleavage in FHCC 98 cells; experiment: PARP cleavage by Western Blotting (apoptosis); conditions: 100 nM, different time points
From the text: as §2

[7] = tested on: SW1116 cells; experiment: Cell cycle distribution by PI staining and flow cytometry; conditions: 100 nM, 24 hours
Protocol: as §1
(§3) In order to determine whether Anagrelide had affected the cell cycle of tumor cells, SMMC7721, HeLa, SW1116 were taken as example to represent sensitive cells and relatively sensitive cells to detect the effect on cell cycle of Anagrelide by PI staining and flow cytometry (FIG. 4 and FIG. 5).

[8] = tested on: SMMC7721 cells; experiment: as above; conditions: 100 nM, 24 hours
Protocol: as §1, §3

[9] = tested on: HeLa cells; experiment: as above; conditions: 100 nM, 24 hours
Protocol: as §1, §3

[10] = tested on: A498 cells; experiment: MTT colorimetry, tumor cell growth/viability; conditions: for IC50: A498, MTT, 72 h
Protocol: (§4) Logarithmic growth phase cells were seeded in 96-well culture plate in appropriate density (100 μl in each well). After overnight cultivation, different concentrations of drugs were added and treated for 72 h, while three wells were set for each concentration. After treatment was completed, 20 μl/well of MTT (5 mg/ml in PBS) was added to each well and affected for 3-5 hours, the medium was suctioned out completely and 100 ul/well of DMSO was added, oscillated on decolorization shaker in dark place for 10 minutes until the Blue purple crystals formazan (formazan) was completely dissolved, the OD (Optical Density) value was detected with a microplate reader (detection wavelength: […]; reference wavelength: 650 nM). In blank group, culture medium only added without cells, and in control group, DMSO in the same volume as that for drug was added. Cell viability was calculated=(OD value of experimental group−OD value of control group)/(OD value of control group−OD value of blank group). Tumor cells from different tissue source were selected, and the concentration of Anagrelide was 1 μM and 50 μM, OD value was MTT detected after administrated for 72 hours, and the cell viability was calculated using cell viability=(administered group OD-blank group OD)/(control group OD-blank group OD)*100%, and was mapped by using GraphPadPrism 4 software. IC50 values on this seven cell lines of Anagrelide were detect by MTT method, and all of them are less than 100 nM (Table 2).

[11] = tested on: Bel7404 cells; experiment: MTT colorimetry, tumor cell growth/viability; conditions: 1 μM, 72 hours
Protocol: as §4

[12] = tested on: SW1116 cells; experiment: MTT colorimetry, tumor cell growth/viability; conditions: 1 μM, 72 hours
Protocol: as §4

[13] = tested on: H4 cells; experiment: MTT colorimetry, tumor cell growth/viability; conditions: 1 μM, 72 hours
Protocol: as §4

[14] = tested on: FHCC98 cells; experiment: MTT colorimetry, tumor cell growth/viability; conditions: 1 μM, 72 hours
Protocol: as §4

[15] = tested on: SMMC7721 cells; experiment: MTT colorimetry, tumor cell growth/viability; conditions: 1 μM, 72 hours
Protocol: as §4

[16] = tested on: HeLa cells; experiment: MTT colorimetry, tumor cell growth/viability; conditions: 1 μM, 72 hours
Protocol: as §4

[17] = tested on: HeLa cells; experiment: Cell migration detection via scratch experiment; conditions: 100 nM, serum-free medium, up to 24 hours
Protocol: The bottom of the six-well plate was uniformly marked with horizontal strips by marker, and then the logarithmic growth phase cells were seeded in the plate by 120×10^4 /mL concentration to make the cells evenly cover the six-well plate, and cells were incubated under 37° C. overnight. Fresh serum-free medium was changed, after the cells were starved for 10 hours, the bottom of six-well plate was scratched perpendicularly to horizontal strips, and washed three times with serum-free medium. After the suspended cells were rinsed, serum-free medium was added and photographed in 0, 2, 6, 12, and 24 hours. Image J was used to calculate the moving distance of the cells. By Scratching assay (HeLa cells were used as an example), the effect of Anagrelide on tumor cell migration was detected.

O=C1CN2Cc3c(ccc(Cl)c3Cl)N=C2N1 [Anagrelide, 6,7-dichloro-1,5-dihydro-imidazo [2,1-b] quinazolin-2 (3H)-one]
effect on cell cycle (cycle arrest) [1]: a significant cycle arrest phenomenon was produced | effect on cell cycle (cycle arrest) [2]: a significant cycle arrest phenomenon was produced | effect on cell cycle (cycle arrest) [3]: the cycle arrest was very strong | effect on cell cycle (cycle arrest) [4]: the cycle arrest was very strong | PARP cleavage [5]: PARP cleavage was gradually increased with time | PARP cleavage [6]: PARP cleavage was gradually increased with time | effect on cell cycle (cycle arrest) [7]: a relatively weaker effect of cycle arresting; also recorded: a significant cycle arrest phenomenon was produced | effect on cell cycle (cycle arrest) [8]: a significant G1, G2 cycle arrest was produced; also recorded: the cycle arrest was very strong | effect on cell cycle (cycle arrest) [9]: a significant G1, G2 cycle arrest was produced; also recorded: the cycle arrest was very strong | inhibition of cell growth ([10]; 1 μM, 72 hours, MTT, A498): significantly inhibited growth | IC50 [10]: 0.053 µM | IC50 ([10]; Homo sapiens, A498, 72 h): < 0.1 µM | inhibition of cell growth [11]: significantly inhibited growth | inhibition of cell growth [12]: significantly inhibited growth | inhibition of cell growth [13]: significantly inhibited growth | inhibition of cell growth [14]: significantly inhibited growth | inhibition of cell growth [15]: significantly inhibited growth | inhibition of cell growth [16]: significantly inhibited growth | healing speed of scratch (cell migration) [17]: significantly inhibit the healing speed of scratch
